The values below are quoted from earlier work in patent publication US20040235766A1 (priority 2001, published 2004).

This series concerns the target DnaX protein (Escherichia coli, UniProt P06710). The settings on record: read-out: dissociation constant.

Sequence of DnaX protein (P06710 whole entry): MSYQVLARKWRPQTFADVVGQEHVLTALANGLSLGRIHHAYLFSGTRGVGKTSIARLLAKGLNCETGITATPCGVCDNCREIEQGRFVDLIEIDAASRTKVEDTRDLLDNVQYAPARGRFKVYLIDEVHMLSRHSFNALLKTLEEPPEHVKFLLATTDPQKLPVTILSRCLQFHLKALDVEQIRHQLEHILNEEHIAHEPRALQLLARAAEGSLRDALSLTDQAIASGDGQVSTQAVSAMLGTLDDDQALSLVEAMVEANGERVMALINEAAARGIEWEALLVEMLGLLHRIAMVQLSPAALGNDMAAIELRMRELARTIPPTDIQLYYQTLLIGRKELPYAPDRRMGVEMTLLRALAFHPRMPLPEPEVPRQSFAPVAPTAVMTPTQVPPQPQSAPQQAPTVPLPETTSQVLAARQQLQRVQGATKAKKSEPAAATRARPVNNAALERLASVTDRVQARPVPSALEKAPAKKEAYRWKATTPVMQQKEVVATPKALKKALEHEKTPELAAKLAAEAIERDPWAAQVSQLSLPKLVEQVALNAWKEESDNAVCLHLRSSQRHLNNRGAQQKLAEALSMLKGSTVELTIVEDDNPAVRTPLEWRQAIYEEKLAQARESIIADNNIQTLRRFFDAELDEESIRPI

With `Nc1ncnc2c1ncn2[C@@H]1O[C@H](COP(=O)(O)OP(=O)(O)OP(=O)(O)O)[C@@H](O)[C@H]1O` [ATP], the Kd is around 2000 nM.
